Assay results taken from PubChem BioAssay (NCI).
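Cells were grown in 96-well plates and exposed to each compound for 48 hours at five concentrations; endpoints were interpolated linearly between bracketing concentrations, or set to the highest concentration if not reached. TGI denotes the concentration required for complete inhibition of growth.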

How the values were obtained:
Assay in all cases: growth of human tumour cells (NCI), 48 h
KM12 colon = system: KM12 colon
HCT-15 colon = system: HCT-15 colon
SK-MEL-5 melanoma = system: SK-MEL-5 melanoma
SNB-75 CNS = system: SNB-75 CNS
IGROV1 ovarian = system: IGROV1 ovarian
TK-10 renal = system: TK-10 renal
MOLT-4 leukemia = system: MOLT-4 leukemia
SK-OV-3 ovarian = system: SK-OV-3 ovarian
MDA-MB-435 = system: MDA-MB-435
SF-295 CNS = system: SF-295 CNS
SF-268 CNS = system: SF-268 CNS
MDA-MB-231 breast = system: MDA-MB-231 breast
SK-MEL-28 melanoma = system: SK-MEL-28 melanoma
A549 NSCLC = system: A549 NSCLC
OVCAR-8 ovarian = system: OVCAR-8 ovarian
RPMI-8226 leukemia = system: RPMI-8226 leukemia
CCRF-CEM leukemia = system: CCRF-CEM leukemia
OVCAR-4 ovarian = system: OVCAR-4 ovarian
MALME-3M melanoma = system: MALME-3M melanoma
SF-539 CNS = system: SF-539 CNS
HL-60(TB) leukemia = system: HL-60(TB) leukemia
NCI-H226 lung = system: NCI-H226 lung
COLO 205 colon = system: COLO 205 colon
NCI-H23 lung = system: NCI-H23 lung
786-0 renal = system: 786-0 renal
SN12C renal = system: SN12C renal
UACC-62 melanoma = system: UACC-62 melanoma
LOX IMVI melanoma = system: LOX IMVI melanoma
MCF7 breast = system: MCF7 breast
HT29 colon = system: HT29 colon
SK-MEL-2 melanoma = system: SK-MEL-2 melanoma
HS 578T breast = system: HS 578T breast
K-562 leukemia = system: K-562 leukemia
SW-620 colon = system: SW-620 colon
M14 melanoma = system: M14 melanoma
NCI-H460 lung = system: NCI-H460 lung
HOP-62 NSCLC = system: HOP-62 NSCLC
MDA-N = system: MDA-N
UACC-257 melanoma = system: UACC-257 melanoma
U251 CNS = system: U251 CNS
CAKI-1 renal = system: CAKI-1 renal
DU-145 prostate = system: DU-145 prostate
RXF 393 renal = system: RXF 393 renal
NCI/ADR-RES ovarian = system: NCI/ADR-RES ovarian
UO-31 renal = system: UO-31 renal
PC-3 prostate = system: PC-3 prostate
SR leukemia = system: SR leukemia
SNB-19 CNS = system: SNB-19 CNS
OVCAR-3 ovarian = system: OVCAR-3 ovarian
HCT-116 colon = system: HCT-116 colon
A498 renal = system: A498 renal
BT-549 breast = system: BT-549 breast
HCC-2998 colon = system: HCC-2998 colon
OVCAR-5 ovarian = system: OVCAR-5 ovarian
HOP-92 NSCLC = system: HOP-92 NSCLC
ACHN renal = system: ACHN renal
NCI-H522 lung = system: NCI-H522 lung
EKVX NSCLC = system: EKVX NSCLC
T-47D breast = system: T-47D breast

In the case of COC(=O)c1c(O)ccc2c1c1c(n2Cc2ccccc2)C(=O)c2ccccc2C1, the TGI (KM12 colon) is reported as > 100 µM, the TGI (HCT-15 colon) is reported as > 100 µM and the TGI (SK-MEL-5 melanoma) is reported as > 100 µM. For the same compound, the TGI (SNB-75 CNS) was 70.2 µM, the TGI (IGROV1 ovarian) was > 100 µM and the TGI (TK-10 renal) was > 100 µM. The TGI (MOLT-4 leukemia) was 37.6 µM, the TGI (SK-OV-3 ovarian) was > 100 µM and the TGI (MDA-MB-435) was > 100 µM. The TGI (SF-295 CNS) was > 100 µM, the TGI (SF-268 CNS) was > 100 µM and the TGI (MDA-MB-231 breast) was > 100 µM. The TGI (SK-MEL-28 melanoma) was > 100 µM, the TGI (A549 NSCLC) was > 100 µM and the TGI (OVCAR-8 ovarian) was > 100 µM. It also gave a TGI (RPMI-8226 leukemia) of 32.6 µM, a TGI (CCRF-CEM leukemia) of 65.8 µM and a TGI (OVCAR-4 ovarian) of 70.4 µM. For the same compound, the TGI (MALME-3M melanoma) was > 100 µM, the TGI (SF-539 CNS) was > 100 µM and the TGI (HL-60(TB) leukemia) was > 100 µM. The TGI (NCI-H226 lung) was > 100 µM, the TGI (COLO 205 colon) was 28.9 µM and the TGI (NCI-H23 lung) was > 100 µM. The TGI (786-0 renal) was > 100 µM, the TGI (SN12C renal) was 45.4 µM and the TGI (UACC-62 melanoma) was > 100 µM. For the same compound, the TGI (LOX IMVI melanoma) was 69.5 µM, the TGI (MCF7 breast) was > 100 µM and the TGI (HT29 colon) was 37.4 µM. The TGI (SK-MEL-2 melanoma) was > 100 µM, the TGI (HS 578T breast) was > 100 µM and the TGI (K-562 leukemia) was 46 µM. The TGI (SW-620 colon) was > 100 µM, the TGI (M14 melanoma) was > 100 µM and the TGI (NCI-H460 lung) was > 100 µM. For the same compound, the TGI (HOP-62 NSCLC) was > 100 µM, the TGI (MDA-N) was > 100 µM and the TGI (UACC-257 melanoma) was > 100 µM. The TGI (U251 CNS) was > 100 µM, the TGI (CAKI-1 renal) was 87.2 µM and the TGI (DU-145 prostate) was > 100 µM. The TGI (RXF 393 renal) was 60 µM, the TGI (NCI/ADR-RES ovarian) was 89.9 µM and the TGI (UO-31 renal) was > 100 µM. For the same compound, the TGI (PC-3 prostate) was 60.5 µM, the TGI (SR leukemia) was 37.5 µM and the TGI (SNB-19 CNS) was > 100 µM. The TGI (OVCAR-3 ovarian) was > 100 µM, the TGI (HCT-116 colon) was > 100 µM and the TGI (A498 renal) was > 100 µM. The TGI (BT-549 breast) was > 100 µM.
In the case of COc1ccccc1C(=O)N(C)c1ccc(Cl)c(C(=O)OC(C)C)c1, the TGI (KM12 colon) is reported as 68.7 µM, the TGI (HCC-2998 colon) is reported as > 100 µM and the TGI (HCT-15 colon) is reported as > 100 µM. The TGI (OVCAR-5 ovarian) was > 100 µM, the TGI (SK-MEL-5 melanoma) was 58.3 µM and the TGI (SNB-75 CNS) was > 100 µM. The TGI (IGROV1 ovarian) was > 100 µM, the TGI (TK-10 renal) was > 100 µM and the TGI (MOLT-4 leukemia) was > 100 µM. The TGI (SK-OV-3 ovarian) was > 100 µM, the TGI (MDA-MB-435) was > 100 µM and the TGI (SF-295 CNS) was 94.5 µM. For the same compound, the TGI (SF-268 CNS) was > 100 µM, the TGI (MDA-MB-231 breast) was > 100 µM and the TGI (SK-MEL-28 melanoma) was > 100 µM. For the same compound, the TGI (A549 NSCLC) was > 100 µM, the TGI (HOP-92 NSCLC) was > 100 µM and the TGI (OVCAR-8 ovarian) was > 100 µM. The TGI (RPMI-8226 leukemia) was > 100 µM, the TGI (CCRF-CEM leukemia) was > 100 µM and the TGI (OVCAR-4 ovarian) was > 100 µM. For the same compound, the TGI (MALME-3M melanoma) was > 100 µM, the TGI (SF-539 CNS) was > 100 µM and the TGI (NCI-H226 lung) was > 100 µM. For the same compound, the TGI (COLO 205 colon) was > 100 µM, the TGI (ACHN renal) was > 100 µM and the TGI (NCI-H23 lung) was > 100 µM. The TGI (786-0 renal) was > 100 µM, the TGI (SN12C renal) was > 100 µM and the TGI (UACC-62 melanoma) was > 100 µM. The TGI (LOX IMVI melanoma) was > 100 µM, the TGI (MCF7 breast) was > 100 µM and the TGI (HT29 colon) was > 100 µM. The TGI (SK-MEL-2 melanoma) was > 100 µM, the TGI (HS 578T breast) was > 100 µM and the TGI (SW-620 colon) was > 100 µM. For the same compound, the TGI (M14 melanoma) was > 100 µM, the TGI (NCI-H460 lung) was > 100 µM and the TGI (MDA-N) was > 100 µM. The TGI (UACC-257 melanoma) was > 100 µM, the TGI (U251 CNS) was > 100 µM and the TGI (CAKI-1 renal) was > 100 µM. The TGI (DU-145 prostate) was > 100 µM, the TGI (NCI-H522 lung) was > 100 µM and the TGI (EKVX NSCLC) was > 100 µM. For the same compound, the TGI (NCI/ADR-RES ovarian) was > 100 µM, the TGI (T-47D breast) was 85.7 µM and the TGI (UO-31 renal) was > 100 µM. The TGI (PC-3 prostate) was > 100 µM, the TGI (SNB-19 CNS) was > 100 µM and the TGI (OVCAR-3 ovarian) was > 100 µM. For the same compound, the TGI (HCT-116 colon) was > 100 µM, the TGI (A498 renal) was > 100 µM and the TGI (BT-549 breast) was 97.7 µM.
For CSc1scc2c1/C(=N/NC(N)=O)CCC2, the TGI (KM12 colon) was > 100 µM, the TGI (HCC-2998 colon) was > 100 µM and the TGI (HCT-15 colon) was > 100 µM. The TGI (OVCAR-5 ovarian) was > 100 µM, the TGI (SK-MEL-5 melanoma) was > 100 µM and the TGI (SNB-75 CNS) was > 100 µM. The TGI (TK-10 renal) was > 100 µM, the TGI (MOLT-4 leukemia) was > 100 µM and the TGI (SK-OV-3 ovarian) was > 100 µM. For the same compound, the TGI (MDA-MB-435) was > 100 µM, the TGI (SF-295 CNS) was > 100 µM and the TGI (SF-268 CNS) was > 100 µM. For the same compound, the TGI (MDA-MB-231 breast) was > 100 µM, the TGI (SK-MEL-28 melanoma) was > 100 µM and the TGI (A549 NSCLC) was > 100 µM. The TGI (HOP-92 NSCLC) was 90 µM, the TGI (OVCAR-8 ovarian) was > 100 µM and the TGI (RPMI-8226 leukemia) was > 100 µM. For the same compound, the TGI (CCRF-CEM leukemia) was > 100 µM, the TGI (OVCAR-4 ovarian) was > 100 µM and the TGI (SF-539 CNS) was > 100 µM. The TGI (NCI-H226 lung) was > 100 µM, the TGI (COLO 205 colon) was > 100 µM and the TGI (ACHN renal) was > 100 µM. The TGI (NCI-H23 lung) was > 100 µM, the TGI (786-0 renal) was > 100 µM and the TGI (SN12C renal) was > 100 µM. The TGI (UACC-62 melanoma) was > 100 µM, the TGI (LOX IMVI melanoma) was > 100 µM and the TGI (MCF7 breast) was > 100 µM. For the same compound, the TGI (HT29 colon) was > 100 µM, the TGI (SK-MEL-2 melanoma) was > 100 µM and the TGI (HS 578T breast) was > 100 µM. The TGI (K-562 leukemia) was > 100 µM, the TGI (SW-620 colon) was > 100 µM and the TGI (M14 melanoma) was > 100 µM. For the same compound, the TGI (NCI-H460 lung) was > 100 µM, the TGI (HOP-62 NSCLC) was > 100 µM and the TGI (MDA-N) was > 100 µM. The TGI (UACC-257 melanoma) was > 100 µM, the TGI (U251 CNS) was > 100 µM and the TGI (CAKI-1 renal) was > 100 µM. The TGI (DU-145 prostate) was > 100 µM, the TGI (NCI/ADR-RES ovarian) was 73.4 µM and the TGI (T-47D breast) was > 100 µM. For the same compound, the TGI (UO-31 renal) was > 100 µM, the TGI (PC-3 prostate) was > 100 µM and the TGI (SNB-19 CNS) was > 100 µM. The TGI (OVCAR-3 ovarian) was > 100 µM, the TGI (HCT-116 colon) was > 100 µM and the TGI (A498 renal) was > 100 µM. The TGI (BT-549 breast) was > 100 µM.
